Columns and labels:
[1] = system: HCT116 colorectal cancer cells (p53+/+ or p53-/-); experiment: Multiparametric flow cytometry of caspase activity and membrane integrity; type: cell-based; design: dose or concentration left out as unconfirmed; conditions: 24 hours, p53+/+ versus p53-/-
Description: (§1) For multiparametric analysis of caspase-dependent cell death and loss of plasma membrane integrity, HeLa, MCF-7, or genetically engineered HCT116 cells (obtained from ATCC) were loaded with increasing concentrations of cell permeable control scrambled peptide or the Survivin peptide, harvested after culturing for 24 hours at 37° C., and analyzed for cell viability (propidium iodide, red channel) and active caspase-3 activity (CaspaTag™ from Intergen, Purchase, N.Y., green channel) by flow cytometry.
In these experiments, HCT116 colorectal cancer cells carrying wild type p53 (p53^+/+) or homozygously inactivated p53 (p53^−/−) (Bunz et al., Science, 282:1497-1501 (1998))) were incubated with […] of cell permeable Control (SEQ ID NO:25) or Survivin (SEQ ID NO:19) cell permeable peptide, harvested after 24 hours and analyzed by multiparametric flow cytometry of induction of caspase activity and loss of cell membrane integrity.

[2] = system: breast carcinoma MCF-7 cells; experiment: as above; type: cell-based; conditions: MCF-7 (wild type p53), 24 hours
Description: as §1
Experiments were performed as in Example 13, except that breast carcinoma MCF-7 cells (wild type p53) were analyzed by multiparametric flow cytometry of induction of caspase activity and loss of cell membrane integrity after intracellular loading with cell permeable Control (SEQ ID NO:25) or Survivin (SEQ ID NO:19) cell permeable peptide.

[3] = system: U937, K562, HL60, THP1 AML cell lines; experiment: MTT cell viability in AML cell lines; type: cell-based, human
Description: FIG. 30 is a graph depicting killing activity of survivin K79-G83 in AML cells. The indicated human AML cell lines (U937, K562, HL60, and THP1) were incubated with scrambled (SEQ ID NO:28) or Survivin (SEQ ID NO:20) peptides and evaluated for cell viability by MTT.
The effect of the K79-G83 Survivin peptide was characterized in more detail for anti-tumor activity in AML. The K79-L87 (SEQ ID NO:19) and K79-G83 peptides (SEQ ID NO:20) were incubated with AML cells, and cell viability was measured using MTT.

[4] = system: PC3 cells; experiment: Immunoblotting of Hsp90 client proteins; type: cell-based; conditions: 75 and 150 μM, 8 hours
Description: Survivin affects the stability and function of Hsp90 client proteins in tumor cells. PC3 cells were untreated or exposed to 75 and 150 μM concentrations of the survivin peptide (SEQ ID NO:19) (or control scrambled peptide; SEQ ID NO:25) for 8 hours and processed for immunoblotting against the Hsp90 client proteins survivin, AKT, and CDK-6. […] Conversely, the levels of Hsp90, Hsp70, and PCNA were not affected (FIG. 26A).

[5] = system: DU145, PC3, HeLa tumor cell lines; experiment: MTT colorimetric viability assay, tumor cell lines; type: cell-based; conditions: increasing concentrations, 24 hours
Description: (§2) FIGS. 22A and 22B compares the effect of P31 (SEQ ID NO:19) or P33 (SEQ ID NO:25) on apoptosis of tumor cell lines (FIG. 22A) and normal cell lines (FIG. 22B). The following tumor cell lines DU145 (prostate cancer, circles), PC3 (prostate cancer, triangles), or HeLa (cervical carcinoma, squares) were treated with the indicated increasing concentrations of P31 peptide (solid symbols) or control P33 peptide (open symbols), harvested after 24 hours, and analyzed for cell viability using an MTT colorimetric assay. For normal cell types (right panel), HFF (human foreskin fibroblasts, squares), HGF (human fibroblasts, triangles) or WS-1 (human epithelial cells, circles) were treated with P31 (solid symbols) or control scrambled peptide P33, harvested after 24 hours and analyzed for overall cell viability by MTT colorimetric assay. All cell lines were from ATCC.

[6] = system: HFF, HGF, WS-1 normal cells; experiment: MTT colorimetric viability assay, normal cell types; type: cell-based, human; conditions: 24 hours
Description: as §2

[7] = target: T1, N-terminus of Hsp90 (Homo sapiens, UniProt P07900, S63T); experiment: ELISA of immobilized peptide with Hsp90 fragments; type: binding; conditions: compared to P33 peptide
T1 construct: GST (N); made in house; host or cells: E. coli
Description: ELISA experiments were performed by immobilizing recombinant Survivin (r-Survivin) ([…]) or recombinant Hsp90 (r-Hsp90) (10 μg/ml) on plastic microtiter wells (Immulon™-2, Dynatech Laboratories, Chantilly, Va.) using bicarbonate buffer, pH 9.5 (100 μl/well) for 18 hours at 4° C. Bound protein was blocked with 3% gelatin for 1 hour at 37° C., rinsed with washing buffer (TBS pH 7.4, 0.1% Tween™, 0.1% BSA) and incubated for 1 hour at 37° C. with different concentrations of a test protein to determine if the test protein bound the immobilized protein.
Nucleotide sequences encoding full length Hsp90α (SEQ ID NO:21; amino acids 1-732) or three fragments: N-Hsp90 (amino acids 1-272 of SEQ ID NO:21), M-Hsp90, (amino acids 273-617 of SEQ ID NO:21), and C-Hsp90 (amino acids 629-732 of SEQ ID NO:21) were cloned by PCR in pGex-4T3 (Pharmacia Biotech.) and pFLAG-CMV 6c (Sigma) using the BamHI cloning sites. GST fusions of full length Hsp90, or individual Hsp90 fragments were expressed in E. coli and bound to glutathione beads (Sigma). Purified recombinant Survivin devoid of the GST frame was obtained as described in Example 2.
FIGS. 24A and 24B identify the location of P31 peptide's binding site as the N-terminus domain of Hsp90. […] After washing, binding of the individual Hsp90 fragments to the immobilized peptides was detected with an antibody to Hsp90. […]

RQIKIWFQNRRMKWKKKHSSGCAFL (Synthetically generated peptide) [P31]
accumulation of cells with high caspase activity and loss of plasma membrane integrity [1]: indistinguishable between p53^+/+ and p53^−/− HCT116 cells
caspase-dependent apoptosis [2]: induces apoptosis
cell viability (MTT), killing of AML cell lines [3]: efficiently killed all AML cell lines tested
Hsp90 client proteins (survivin, Akt, CDK-4, CDK-6) [4]: caused disappearance of multiple Hsp90 client proteins
levels of Hsp90, Hsp70, and PCNA [4]: not affected
cell death in cancer cell lines (MTT) [5]: effectively induced cell death in all three cancer cell lines
cell death in normal cell types (MTT) [6]: did not induce cell death in any of the three normal cell types
binding to the N-terminus of Hsp90 (OD405) [7]: bound specifically
